Measured values: patent US20230233584A1, “EXTENDED RELEASE 5-HT RECEPTOR AGONISTS FOR NEUROLOGICAL CONDITIONS” (Diamond Therapeutics Inc., priority 2020, published 2023)

Key:
[1] = Psilocybin and psilocin plasma pharmacokinetics after s.c. psilocybin; type: in vivo, rats; conditions: rats; for AUC0-tlast, Mean / Cmax, Mean / Cmax/Dose, Mean / tmax, Mean / AUC0-inf, Mean / AUC0-inf/Dose, Mean / Apparent t1/2, Mean / MRT0-inf, Mean: psilocybin in plasma
Procedure: Psilocybin doses of 0.05, 0.1, 1, 10 mg/kg were used to evaluate psilocybin and psilocin PK in rats. For the doses of psilocybin that positively effect behaviors in the low performers in the PR and 5CSRTT, e.g., 0.05-0.1 mg/kg, the corresponding Cm. of psilocin was ˜7±2 ng/ml at 30 minutes for 0.05 mg/kg, and at a dose of 0.1 mg/kg, the Cm. of psilocin was determined to be ˜12±3 ng/ml at 30 minutes (FIG. 5).
Details of the plasma concentration studies are shown in Tables 1-8 (psilocybin) and 9-16 (psilocin). Values in italics are below the lower level of quantitation (BLQ, <1 ng/mL) but were included in calculations. Values in bold and underlined are considered to be outliers and were omitted from calculations. Measured dosing solution concentrations were 0.0460, 0.0967, 0.948 and 9.65 mg/mL for 0.05, 0.1, 1 and 10 […].

[2] = tested on: Long Evans rats; test: 5CSRTT, acute dosing, 10 s ITI, premature (PREM) and perseverant (PSV) responses; type: in vivo
Description: Using a longer duration between stimulus and reward, the 5CSRTT study measures premature (PREM) and perseverant (PSV) responses. PREM/PSV responses were increased by increasing the ITI from 5 s (baseline) to 10 s (test condition). […] Both PREM and PSV behaviors are examples of executive cognitive function, likely involving areas of the prefrontal cortex, a brain region rich in 5-HT2A receptors.

[3] = Minipump infusion of psilocybin over 12 days: plasma/blood exposure; type: in vivo, rats; conditions: psilocybin minipump, days 4-12, rats
Procedure: A dose of psilocybin, which is free from perceptual and behavioral side effects, was dosed in rats (N=24) continuously over a period of 12 days using an Alzet minipump implanted in rats of approximately 380-390 g body weight. The pump was primed to deliver psilocybin at 5 mg/kg/day pump concentration. The target plasma concentration was 10 ng/ml psilocin with actual plasma concentration 9.3+1.3 ng/ml over the 12 day study period.
Blood was collected from rats on days 4, 8 and 12 to measure levels of psilocybin and psilocin in Group B rats. Blood was collected via saphenous bleed at a standard timepoint which will not interfere with 5-choice testing. Psilocin blood levels were in the range of 8-10 ng/ml over days 4-12, while psilocybin blood levels were in the range of 2-5 ng/ml over days 4-12 (FIG. 7A), corresponding to 10 ng/mL psilocin. […] The present observations recorded for psilocybin/psilocin are occurring at exposure levels of psilocin ˜10 ng/ml (e.g., FIG. 5), likely resulting in a low level of CNS 5-HT2A receptor occupancy, and which is insufficient to elicit cardinal signs of 5-HT2A receptor activation such as WDS/BMC in rats (e.g., FIG. 1B).

[4] = tested on: rats; test: Locomotor activity, distance travelled; type: in vivo
Description: Stimulant drugs cause far larger increases in distance travelled with escalating doses, reflective of a direct motor stimulant property not seen with psilocybin.

[5] = Body weight during 12-day minipump study; type: in vivo; conditions: rats

CN(C)CCc1c[nH]c2cccc(OP(=O)(O)O)c12 [psilocybin, 4-phosphoryloxy-N,N-dimethyltryptamine]
Plasma concentration of psilocybin, Mean ([1]; psilocybin 0.05 mg/kg s.c., 0.25 h): 6.20 ng/mL
Plasma concentration of psilocybin, Mean ([1]; psilocybin 0.05 mg/kg s.c., 0.5 h): 12.5 ng/mL
Plasma concentration of psilocybin, Mean ([1]; psilocybin 0.05 mg/kg s.c., 0.75 h): 1.07 ng/mL
Plasma concentration of psilocybin, Mean ([1]; psilocybin 0.05 mg/kg s.c., 1 h): 19.2 ng/mL
Plasma concentration of psilocybin, Mean ([1]; psilocybin 0.05 mg/kg s.c., 2 h): 0.594 ng/mL
Plasma concentration of psilocybin, Mean ([1]; psilocybin 0.05 mg/kg s.c., 4 h): 1.95 ng/mL
Plasma concentration of psilocybin, Mean ([1]; psilocybin 0.05 mg/kg s.c., 6 h): 2.12 ng/mL
Plasma concentration of psilocybin, Mean ([1]; psilocybin 0.1 mg/kg s.c., 0.25 h): 21.7 ng/mL
Plasma concentration of psilocybin, Mean ([1]; psilocybin 0.1 mg/kg s.c., 0.5 h): 28.9 ng/mL
Plasma concentration of psilocybin, Mean ([1]; psilocybin 0.1 mg/kg s.c., 0.75 h): 2.96 ng/mL
Plasma concentration of psilocybin, Mean ([1]; psilocybin 0.1 mg/kg s.c., 1 h): 2.19 ng/mL
Plasma concentration of psilocybin, Mean ([1]; psilocybin 0.1 mg/kg s.c., 2 h): 1.76 ng/mL
Plasma concentration of psilocybin, Mean ([1]; psilocybin 0.1 mg/kg s.c., 4 h): 2.55 ng/mL
Plasma concentration of psilocybin, Mean ([1]; psilocybin 0.1 mg/kg s.c., 6 h): 0.921 ng/mL
Plasma concentration of psilocybin, Mean ([1]; psilocybin 1.0 mg/kg s.c., 0.25 h): 75.2 ng/mL
Plasma concentration of psilocybin, Mean ([1]; psilocybin 1.0 mg/kg s.c., 0.5 h): 47.3 ng/mL
Plasma concentration of psilocybin, Mean ([1]; psilocybin 1.0 mg/kg s.c., 0.75 h): 35.8 ng/mL
Plasma concentration of psilocybin, Mean ([1]; psilocybin 1.0 mg/kg s.c., 1 h): 35.1 ng/mL
Plasma concentration of psilocybin, Mean ([1]; psilocybin 1.0 mg/kg s.c., 2 h): 2.19 ng/mL
Plasma concentration of psilocybin, Mean ([1]; psilocybin 1.0 mg/kg s.c., 4 h): 1.12 ng/mL
Plasma concentration of psilocybin, Mean ([1]; psilocybin 1.0 mg/kg s.c., 6 h): 0.929 ng/mL
Plasma concentration of psilocybin, Mean ([1]; psilocybin 10 mg/kg s.c., 0.25 h): 1030 ng/mL
Plasma concentration of psilocybin, Mean ([1]; psilocybin 10 mg/kg s.c., 0.5 h): 1544 ng/mL
Plasma concentration of psilocybin, Mean ([1]; psilocybin 10 mg/kg s.c., 0.75 h): 344 ng/mL
Plasma concentration of psilocybin, Mean ([1]; psilocybin 10 mg/kg s.c., 1 h): 269 ng/mL
Plasma concentration of psilocybin, Mean ([1]; psilocybin 10 mg/kg s.c., 2 h): 101 ng/mL
Plasma concentration of psilocybin, Mean ([1]; psilocybin 10 mg/kg s.c., 4 h): 1.80 ng/mL
Plasma concentration of psilocybin, Mean ([1]; psilocybin 10 mg/kg s.c., 6 h): 1.32 ng/mL
AUC0-tlast, Mean ([1]; psilocybin 0.05 mg/kg s.c.): 10.7 ng·h/mL
Cmax, Mean ([1]; psilocybin 0.05 mg/kg s.c.): 18.9 ng/mL
Cmax/Dose, Mean ([1]; psilocybin 0.05 mg/kg s.c.): 377 kg·ng/mL/mg
tmax, Mean ([1]; psilocybin 0.05 mg/kg s.c.): 36 min
AUC0-tlast, Mean ([1]; psilocybin 0.1 mg/kg s.c.): 11.4 ng·h/mL
Cmax, Mean ([1]; psilocybin 0.1 mg/kg s.c.): 31.4 ng/mL
Cmax/Dose, Mean ([1]; psilocybin 0.1 mg/kg s.c.): 314 kg·ng/mL/mg
tmax, Mean ([1]; psilocybin 0.1 mg/kg s.c.): 19.3 min
AUC0-inf, Mean ([1]; psilocybin 1.0 mg/kg s.c.): 47.9 ng·h/mL
AUC0-inf/Dose, Mean ([1]; psilocybin 1.0 mg/kg s.c.): 47.9 kg·ng·h/mL/mg
AUC0-tlast, Mean ([1]; psilocybin 1.0 mg/kg s.c.): 53.1 ng·h/mL
Apparent t1/2, Mean ([1]; psilocybin 1.0 mg/kg s.c.): 26.7 min
Cmax, Mean ([1]; psilocybin 1.0 mg/kg s.c.): 78.3 ng/mL
Cmax/Dose, Mean ([1]; psilocybin 1.0 mg/kg s.c.): 78.3 kg·ng/mL/mg
MRT0-inf, Mean ([1]; psilocybin 1.0 mg/kg s.c.): 44.8 min
tmax, Mean ([1]; psilocybin 1.0 mg/kg s.c.): 21.4 min
AUC0-inf, Mean ([1]; psilocybin 10 mg/kg s.c.): 2156 ng·h/mL
AUC0-inf/Dose, Mean ([1]; psilocybin 10 mg/kg s.c.): 216 kg·ng·h/mL/mg
AUC0-tlast, Mean ([1]; psilocybin 10 mg/kg s.c.): 1707 ng·h/mL
Apparent t1/2, Mean ([1]; psilocybin 10 mg/kg s.c.): 34 min
Cmax, Mean ([1]; psilocybin 10 mg/kg s.c.): 3595 ng/mL
Cmax/Dose, Mean ([1]; psilocybin 10 mg/kg s.c.): 359 kg·ng/mL/mg
MRT0-inf, Mean ([1]; psilocybin 10 mg/kg s.c.): 43 min
tmax, Mean ([1]; psilocybin 10 mg/kg s.c.): 30 min
PREM and PSV responses ([2]; 0.05 mg/kg S.C., 24 rats, p=0.05): increase
premature responses and perseverative responses ([2]; 0.05 and 0.1 mg/kg, low responders (N=8), p<0.01 vs vehicle): marked increases
psilocybin blood levels [3]: 2 to 5 ng/mL
motor activity distance travelled ([4]; high doses): slightly decreased distanced travelled
motor activity distance travelled ([4]; low doses): increase in motor activity distance travelled
Body Weight, Day 1 vs. Day 12, Average ([5]; Psilocybin 4 mg/mL minipump): 20.6
Body Weight, Day 1 vs. Day 12, Average ([5]; Psilocybin 6 mg/mL minipump): 19.3
Body Weight, Day 1 vs. Day 12, Average ([5]; Psilocybin 8 mg/mL minipump): 24.4
body weight over the study course ([5]; psilocybin minipump, 12 day study course): gaining body weight
weight gain compared with placebo treated animals ([5]; psilocybin minipump, 12 days): gained weight to a lesser amount
